Test system: 922993-354-T-J3-PDC complex spheroid viability
Test: Anticancer human tumor 922993-354-T-J3-PDC patient-derived endometrial carcinoma cell line growth inhibition [POLQ]
Conditions: for IC50: curve of first compound; for viability, T/C: stronger effect = lower value; active = viability on the fitted dose curve at most 10% of control; inactive = the rest
Summary of the method: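 PDC + HUVEC + MSC complex spheroids; POLQ inhibitors ± partner drugs; top conc. at/near clinical Cmax, else 10 microM (SN-38 1 microM), half-log dilutions; 37 degrees C, 5% CO2.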

[1] = second compound 0.0316 µM, first compound 0.0316 µM
[2] = second compound 0.0316 µM, first compound 0.1 µM
[3] = second compound 0.1 µM, first compound 0.0316 µM
[4] = second compound 0.1 µM, first compound 0.1 µM
[5] = second compound 0.316 µM, first compound 0.0316 µM
[6] = second compound 0.316 µM, first compound 0.1 µM
[7] = second compound 1 µM, first compound 0.0316 µM
[8] = second compound 1 µM, first compound 0.1 µM
[9] = second compound 3.16 µM, first compound 0.0316 µM
[10] = second compound 3.16 µM, first compound 0.1 µM
[11] = second compound 10 µM, first compound 0.0316 µM
[12] = second compound 10 µM, first compound 0.1 µM
[13] = second compound 0.0316 µM, first compound 0.316 µM
[14] = second compound 0.0316 µM, first compound 1 µM
[15] = second compound 0.0316 µM, first compound 3.16 µM
[16] = second compound 0.0316 µM, first compound 10 µM
[17] = second compound 0.1 µM, first compound 0.316 µM
[18] = second compound 0.1 µM, first compound 1 µM
[19] = second compound 0.1 µM, first compound 3.16 µM
[20] = second compound 0.1 µM, first compound 10 µM
[21] = second compound 0.316 µM, first compound 0.316 µM
[22] = second compound 0.316 µM, first compound 1 µM
[23] = second compound 0.316 µM, first compound 3.16 µM
[24] = second compound 0.316 µM, first compound 10 µM
[25] = second compound 1 µM, first compound 0.316 µM
[26] = second compound 1 µM, first compound 1 µM
[27] = second compound 1 µM, first compound 3.16 µM
[28] = second compound 1 µM, first compound 10 µM
[29] = second compound 3.16 µM, first compound 0.316 µM
[30] = second compound 3.16 µM, first compound 1 µM
[31] = second compound 3.16 µM, first compound 3.16 µM
[32] = second compound 3.16 µM, first compound 10 µM
[33] = second compound 10 µM, first compound 0.316 µM
[34] = second compound 10 µM, first compound 1 µM
[35] = second compound 10 µM, first compound 3.16 µM
[36] = second compound 10 µM, first compound 10 µM
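Also: spheroids exposed to the agents for one week.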
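For viability, T/C in this document: 100% = DMSO vehicle control wells.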

Cn1ncnc1[C@H]1c2n[nH]c(=O)c3cc(F)cc(c23)N[C@@H]1c1ccc(F)cc1 + Cc1cccc(N(C)C(=O)C2C(O)CCN2c2nc(C)cc(C(F)(F)F)c2C#N)c1
0.083 µM: IC50 (second compound 3.16 µM)
0.0307 µM: IC50 (second compound 10 µM)
> 0.1 µM: IC50 (second compound 0.0316 µM) | IC50 (second compound 0.1 µM) | IC50 (second compound 0.316 µM) | IC50 (second compound 1 µM)
inactive: viability, T/C (second compound 0.0316 µM, first compound 0.000316 µM) 97.8% | viability, T/C (second compound 0.0316 µM, first compound 0.001 µM) 95.5% | viability, T/C (second compound 0.0316 µM, first compound 0.00316 µM) 111% | viability, T/C (second compound 0.0316 µM, first compound 0.01 µM) 98.3% | viability, T/C [1] 99% | viability, T/C [2] 70.2% | viability, T/C (second compound 0.1 µM, first compound 0.000316 µM) 108% | viability, T/C (second compound 0.1 µM, first compound 0.001 µM) 105% | viability, T/C (second compound 0.1 µM, first compound 0.00316 µM) 94.2% | viability, T/C (second compound 0.1 µM, first compound 0.01 µM) 94.4% | viability, T/C [3] 90.2% | viability, T/C [4] 74.9% | viability, T/C (second compound 0.316 µM, first compound 0.000316 µM) 107% | viability, T/C (second compound 0.316 µM, first compound 0.001 µM) 106% | viability, T/C (second compound 0.316 µM, first compound 0.00316 µM) 102% | viability, T/C (second compound 0.316 µM, first compound 0.01 µM) 106% | viability, T/C [5] 91.2% | viability, T/C [6] 67.2% | viability, T/C (second compound 1 µM, first compound 0.000316 µM) 107% | viability, T/C (second compound 1 µM, first compound 0.001 µM) 108% | viability, T/C (second compound 1 µM, first compound 0.00316 µM) 111% | viability, T/C (second compound 1 µM, first compound 0.01 µM) 96.8% | viability, T/C [7] 97.4% | viability, T/C [8] 66.2% | viability, T/C (second compound 3.16 µM, first compound 0.000316 µM) 100% | viability, T/C (second compound 3.16 µM, first compound 0.001 µM) 101% | viability, T/C (second compound 3.16 µM, first compound 0.00316 µM) 99.9% | viability, T/C (second compound 3.16 µM, first compound 0.01 µM) 96.8% | viability, T/C [9] 92.3% | viability, T/C [10] 41.6% | viability, T/C (second compound 10 µM, first compound 0.000316 µM) 111% | viability, T/C (second compound 10 µM, first compound 0.001 µM) 97.4% | viability, T/C (second compound 10 µM, first compound 0.00316 µM) 99% | viability, T/C (second compound 10 µM, first compound 0.01 µM) 72.9% | viability, T/C [11] 49.8% | viability, T/C [12] 32%

O=c1[nH]cc(F)c(=O)[nH]1 + Cc1cccc(N(C)C(=O)C2C(O)CCN2c2nc(C)cc(C(F)(F)F)c2C#N)c1
2.54 µM: IC50 (second compound 3.16 µM)
inactive: viability, T/C [1] 102% | viability, T/C [2] 100% | viability, T/C [13] 93% | viability, T/C [14] 90% | viability, T/C [15] 34.6% | viability, T/C [16] 16.3% | viability, T/C [3] 89.5% | viability, T/C [4] 95.7% | viability, T/C [17] 97.8% | viability, T/C [18] 94.4% | viability, T/C [19] 26.9% | viability, T/C [20] 17.5% | viability, T/C [5] 108% | viability, T/C [6] 96.1% | viability, T/C [21] 102% | viability, T/C [22] 86.6% | viability, T/C [23] 29.7% | viability, T/C [24] 14.8% | viability, T/C [7] 103% | viability, T/C [8] 102% | viability, T/C [25] 98.1% | viability, T/C [26] 97.3% | viability, T/C [27] 31.1% | viability, T/C [28] 15.9% | viability, T/C [9] 103% | viability, T/C [10] 104% | viability, T/C [29] 101% | viability, T/C [30] 90.5% | viability, T/C [31] 40.6% | viability, T/C [32] 12.1% | viability, T/C [11] 104% | viability, T/C [12] 98.8% | viability, T/C [33] 111% | viability, T/C [34] 94.6% | viability, T/C [35] 38.3% | viability, T/C [36] 13.5%
2.29 µM: IC50 (second compound 0.0316 µM)
2.49 µM: IC50 (second compound 10 µM)
2.13 µM: IC50 (second compound 0.1 µM)
2.1 µM: IC50 (second compound 0.316 µM)
2.28 µM: IC50 (second compound 1 µM)

CCc1cc2c(N3CCc4c(cc(Cn5ccnc5)cc4-c4cn(C)nc4C(F)(F)F)C3=O)cc(C)nc2c(OC)n1 + Cc1cccc(N(C)C(=O)C2C(O)CCN2c2nc(C)cc(C(F)(F)F)c2C#N)c1
inactive: viability, T/C [1] 101% | viability, T/C [2] 105% | viability, T/C [13] 109% | viability, T/C [14] 107% | viability, T/C [15] 102% | viability, T/C [16] 91.7% | viability, T/C [3] 109% | viability, T/C [4] 101% | viability, T/C [17] 108% | viability, T/C [18] 105% | viability, T/C [19] 106% | viability, T/C [20] 97% | viability, T/C [5] 103% | viability, T/C [6] 103% | viability, T/C [21] 107% | viability, T/C [22] 108% | viability, T/C [23] 110% | viability, T/C [24] 98.7% | viability, T/C [7] 102% | viability, T/C [8] 103% | viability, T/C [25] 107% | viability, T/C [26] 105% | viability, T/C [27] 108% | viability, T/C [28] 101% | viability, T/C [9] 103% | viability, T/C [10] 104% | viability, T/C [29] 106% | viability, T/C [30] 105% | viability, T/C [31] 104% | viability, T/C [32] 99.7% | viability, T/C [11] 93.4% | viability, T/C [12] 104% | viability, T/C [33] 105% | viability, T/C [34] 102% | viability, T/C [35] 107% | viability, T/C [36] 98.2%
> 10 µM: IC50 (second compound 0.0316 µM) | IC50 (second compound 0.1 µM) | IC50 (second compound 0.316 µM) | IC50 (second compound 1 µM) | IC50 (second compound 3.16 µM) | IC50 (second compound 10 µM)
